Measured values from patent US8637237B2, “Methods, compositions, and systems for the identification of species-specific or developmental stage-specific insecticides” (The University of North Carolina at Greensboro, priority 2003, dated 2014).

Target: T1, GRdEcR/RXR (Drosophila melanogaster, UniProt P34021, E261P/P331L/Q260P/V259R)
T1 construct: ligation of a Not I-Bam HI fragment containing the DBD and LBD of a modified EcR cDNA, EcRnx; expressed in transfected cells; host or cells: CHO
T1 sequence (P34021 259-878 V259R/Q260P/E261P/P331L limits assumed): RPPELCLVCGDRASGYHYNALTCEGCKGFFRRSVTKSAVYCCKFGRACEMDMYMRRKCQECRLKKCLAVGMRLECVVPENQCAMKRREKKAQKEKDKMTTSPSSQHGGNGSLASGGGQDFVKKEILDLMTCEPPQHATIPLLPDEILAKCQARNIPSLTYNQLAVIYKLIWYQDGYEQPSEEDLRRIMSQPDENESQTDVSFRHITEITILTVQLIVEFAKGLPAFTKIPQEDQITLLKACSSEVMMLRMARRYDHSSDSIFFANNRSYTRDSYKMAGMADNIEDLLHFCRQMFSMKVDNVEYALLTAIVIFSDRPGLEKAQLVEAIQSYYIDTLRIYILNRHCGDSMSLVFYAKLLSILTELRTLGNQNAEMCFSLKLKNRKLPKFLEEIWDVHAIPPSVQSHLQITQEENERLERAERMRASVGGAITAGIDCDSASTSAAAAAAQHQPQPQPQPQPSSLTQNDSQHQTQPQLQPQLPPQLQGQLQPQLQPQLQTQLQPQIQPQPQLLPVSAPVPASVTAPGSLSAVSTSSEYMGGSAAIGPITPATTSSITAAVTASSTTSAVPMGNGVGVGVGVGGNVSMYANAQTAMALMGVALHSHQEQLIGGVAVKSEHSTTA
T1 sequence (P28700 1-467 partner): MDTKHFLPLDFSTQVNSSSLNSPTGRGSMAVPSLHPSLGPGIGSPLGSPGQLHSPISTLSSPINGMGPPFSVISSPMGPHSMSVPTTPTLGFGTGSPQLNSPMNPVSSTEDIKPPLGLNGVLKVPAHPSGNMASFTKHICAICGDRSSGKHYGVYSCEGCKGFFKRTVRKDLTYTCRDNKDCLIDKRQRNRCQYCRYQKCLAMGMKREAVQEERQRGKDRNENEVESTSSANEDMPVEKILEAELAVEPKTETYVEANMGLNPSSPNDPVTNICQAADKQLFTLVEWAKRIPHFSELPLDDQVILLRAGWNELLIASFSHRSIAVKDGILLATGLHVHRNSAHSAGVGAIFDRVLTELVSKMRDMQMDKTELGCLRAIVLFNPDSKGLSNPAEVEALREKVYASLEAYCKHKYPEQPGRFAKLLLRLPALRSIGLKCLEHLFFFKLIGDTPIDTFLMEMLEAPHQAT
Test: GRdEcR (GEcEc) chimera with RXR, (EcRE)5-ΔMTV reporter in CHO cells
Assay type: cell-based
Description: These experiments employed a mammalian cell culture system using Chinese hamster ovary cells (CHO) to evaluate the transcriptional function of Drosophila melanogaster EcR and USP using methods described previously (U.S. Patent Application Publication No: 2005/0049230; Henrich et al, 2003). Cells were seeded in 6-well polypropylene culture plates (Falcon) with 10^5 cells per well on the day prior to transfection. Transfection was subsequently performed using either calcium phosphate (Kitareewan et al., 1996, Mol. Biol. Cell, 7:1153-1196) or a GenePorter reagent (Gene Therapy Systems, Inc; San Diego, Calif.) following manufacturer's protocols. Each well received 1.25 μg of (EcRE)5-ΔMTV-CAT (five copies of the hsp27 EcRE inserted into an mouse mammary tumor virus (MTV) promoter upstream of the chloramphenicol acetyltransferase (CAT) gene) or (EcRE)5-ΔMTV-LUC (the same promoter attached to firefly luciferase), 1.25 μg of pCH111 (SV40 early promoter linked to the β-galactosidase gene) to normalize CAT activity, and 0.25 μg of each expression plasmid (EcR, FXR, RXR, USP) that was tested. The cells were incubated with plasmid DNA for seven hours and then washed with 1×PBS. Muristerone A (murA; Alexis Biochemicals) or 20-hydroxyecdysone (20E; Sigma) dissolved in ethanol to a concentration of 10 mM was diluted as necessary to the final assay concentration (FAC) in 2 ml of fresh incubation medium that was then applied to the cells. Similarly, JHIII (Sigma) was dissolved in dimethyl sulfoxide (DMSO) to a concentration of […] and diluted into the incubation medium to its final assay concentration (20, 40, 80, 160 μM). […] A corresponding volume of ethanol and DMSO were added to control cells for all experiments. For all experiments, the cells were allowed to incubate with the medium for 24 hours before collection and cell lysates were prepared by described methods (Kitareewan et al., 1996). Both β-galactosidase and CAT reporter activity were measured based on previously used methods (Kitareewan et al, 1996). Luciferase assays using luciferrin followed the specifications of the manufacturer.
Transcriptional activity, measured as ^14C-chloramphenicol counts (for measuring CAT activity) or relative luciferase activity (RLU) was quantified for each cell lysate. The counts were then normalized by adjusting for differences in β-galactosidase activity, since β-galactosidase expression is controlled by a constitutive promoter and provides an estimate of cell mass. Data were normalized as fold-induction based on differences in reporter gene activity between hormonally treated and control cells.
In an initial series of studies, a GRdEcR chimera that consists of the rat glucocorticoid receptor (GR) activation domain attached to the EcR DBD and LBD (FIG. 1) was cotransfected along with mRXRα into CHO cells. The response of transfected cells to murA was measured using a (EcRE)5-ΔMTV-CAT reporter plasmid that carries five tandem repeats of the hsp27 EcRE linked to the MTV (mouse mammary tumor virus) promoter and the chloramphenicol acetyltransferase gene (CAT).
The prominent candidate for this JH-responsive macromolecule in insects is the structurally-related ecdysone receptor (EcR). Like FXR, EcR heterodimerizes with RXR and binds to the hsp27 ecdysone-responsive DNA element (Forman et al., 1995), but distinctively activates transcription in response to muristerone A (MurA or MUR), a synthetic ecdysone (Yao et al., 1992). […] In the experiments shown in FIG. 15A, muristerone A (MUR) was added at the indicated doses in ethanol vehicle, and increasing amounts of JH III (12, 25, or 50 μM) were added (underlying triangles). Numbers over bars indicate the ratio of the GEcEc-dependent activity produced by 50 μM JH III in the presence of the indicated dose of MUR to the activity produced by MUR alone. Relative light units (RLU) from firefly luciferase in cell lysates are expressed relative to renilla luciferase (Promega).

Compound: COC(=O)/C=C(\C)CC/C=C(\C)CC[C@H]1OC1(C)C [JHIII, juvenile hormone III]
- increase of MurA-induced GEcEc-dependent activity by JH III (80 μM JH III added to MurA): 3 times
- response of GEcEc to JH III alone (80 μM JH III, no MurA): failed to respond
- potentiation of murA response by JHIII (20, 40, 80, 160 μM JHIII at submaximal murA (0.1 μM and 1 μM)): potentiated the response of murA in a dose-dependent manner
- MurA + JHIII (JHIII potentiation) (GRdEcR/RXR, 0.1 μM murA + 80 μM JHIII): + ((+) indicates observed potentiation that exceeds 2-fold above the levels observed with ecdysteroid alone)
- effect of JHIII alone on transcription (no murA): did not show an effect

Compound: CC(C)CC[C@@H](O)[C@](C)(O)[C@H]1CC[C@@]2(O)C3=CC(=O)[C@]4(O)C[C@@H](O)[C@@H](O)C[C@]4(C)[C@H]3[C@H](O)C[C@]12C [murA, muristerone A]
- lowest murA dosage evoking a detectable response (GRdEcR + RXR, CAT reporter): 0.1 µM
- MurA (inducibility) (GRdEcR/RXR, 0.1 μM murA): + ((+) designates a change in transcriptional level that exceeds 2.5-fold)

Compound: juvocimene
- potentiation of MUR-inducible GEcEc-dependent activity (25 μM test compound, 0.2 μM muristerone A): between two and four times
